Test results as given in patent publication US10023611B2, “Process for the preparation of bortezomib mannitol ester” (Cipla Limited, priority 2013, dated 2018).

How the values were obtained:
Water solubility = format: physicochemical
Experimental: Bortezomib (a boronic acid compound), in its solid state as a pure API existed in the form of highly water insoluble boroxine, a cyclic boronic acid anhydride. When placed in water, the boroxine dissociated to form equilibrium between itself and the monomeric bortezomib resulting in an apparent water solubility of about 0.5-1 mg/ml which was not sufficient for formulation purposes. In order to deal with such issues, the innovator company in their patent WO2002059130 application has described a stable formulation containing mannitol ester of bortezomib. The application '9130 also relates to a process of preparing such formulation by first dissolving the bortezomib in warm (temperature around 45±2° C.) TBA (tertiary butyl alcohol), then adding water and mannitol (1% bulking agent), followed by freeze drying. […] So, the FDA approved drug Bortezomib is now available as a mannitol boronic ester which in its reconstituted form consists of the mannitol ester in equilibrium with its hydrolysis product, the monomeric boronic acid. The drug substance exists in its cyclic anhydride from as a trimeric boroxine, as described below in FIG. 1.

[1] = boroxine placed in water, equilibrium with monomeric bortezomib; cited from earlier work

water solubility (soluble in volumes of water) (Water solubility)	water solubility (in words) (Water solubility)	SMILES	apparent water solubility [1]
around 5 volumes water		CC(C)C[C@H](NC(=O)[C@H](Cc1ccccc1)NC(=O)c1cnccn1)B1OC(C(O)CO)C(C(O)CO)O1 (stereo in doubt) [Compound B, bortezomib-mannitol ester]	
	poorly water soluble	CC(C)C[C@H](NC(=O)[C@H](Cc1ccccc1)NC(=O)c1cnccn1)B(O)O [Bortezomib, [(1R)-3-methyl-1-[[(2S)-1-oxo-3-phenyl-2-[(pyrazinylcarbonyl)amino]propyl]amino]butyl] boronic acid]	500 to 1000 µg/mL
